Results taken from patent US20120214684A1, “COMPOSITIONS AND METHODS FOR DETECTING AND TREATING PROSTATE CARCINOMA” (UNIVERSITY OF FLORIDA RESEARCH FOUNDATION, priority 2009, published 2012).

Experiments:
[1] = system: prostate cancer stem cells (CSC) and non-stem prostate cancer cells (Non-CSC); assay: Cell viability of CSC and Non-CSC after Docetaxel; format: cell-based, human; details: 5 nM Docetaxel, Day 0, 1, 2 and 3
Procedure: (§1) FIG. 12B is a graph depicting the cell viability of prostate cancer stem cells (CSC) and non-stem prostate cancer cells (Non-CSC) observed for up to 72 hours after treatment with Docetaxel. Cell viability was determined by quantifying the surviving prostate cancer stem cells (CSC) and non-stem prostate cancer cells (Non-CSC) in the samples exposed to 5 nM Docetaxel at Day 0, 1, 2 and 3.
(§2) Prostate cancer stem cells from metastatic prostate cancer cell lines were examined for their sensitivity to conventional cancer treatments (e.g., radiation and chemotherapy). […] Metastatic prostate stem cell lines were also treated with Docetaxel, a frontline treatment for drug-resistant cancer cells.

Sox2, Oct3/4, Nanog = assay: Western blot of stem cell markers after Docetaxel treatment; format: cell-based, human; details: 1 nM, 2 nM, 5 nM, 10 nM docetaxel
Procedure: as §1, §2
For the experiments described above, Western-blot analysis was performed by standard methods on isolated cancer stem cells and non-cancer stem cells. Whole cell lysates were prepared in lysis buffer with a commercially available protease inhibitor cocktail (Pierce) at 4° C., followed by centrifugation at 13,000×g for 10 min. Extracts were separated by SDS/PAGE and transferred to nitrocellulose membranes. The membranes were blocked with 5% nonfat dry milk in 20 mM Tris-HCl (pH 7.5), 500 mM sodium chloride, and 0.05% Tween 20 for 2 h and then incubated with commercially available primary antibodies in the same buffer with 1% BSA (fraction V). […]

SMILES: CC(=O)O[C@@]12CO[C@@H]1C[C@H](O)[C@@]1(C)C(=O)[C@H](O)C3=C(C)[C@@H](OC(=O)[C@H](O)[C@@H](NC(=O)OC(C)(C)C)c4ccccc4)C[C@@](O)([C@@H](OC(=O)c4ccccc4)[C@H]21)C3(C)C [Docetaxel]
- cell viability of prostate cancer stem cells vs non-stem prostate cancer cells [1]: more cell viability compared to non-stem prostate cancer cells
- detection of Sox2, Oct 3/4 and Nanog expression (Sox2, Oct3/4, Nanog): increased detection of Sox2, Oct 3/4 and Nanog expression with increasing dose
